Measurements: ChEMBL document CHEMBL6178014, “Discovery and Administration Optimization of Novel Selective CDK9 Inhibitor, 1-7a-B1, for Improved Pharmacokinetics and Antitumor Efficacy In Vivo” (J Med Chem, 2025)

Experiments:
HT-29 = assay: Antiproliferative activity against human HT-29 cells assessed as inhibition of cell growth incubated for 48 hrs by CCK8 assay; format: functional
CDK9/cyclin T1 = CDK9/cyclin T1 (Homo sapiens, UniProt P50750); assay: Inhibition of His-tagged full length human recombinant CDK9/cyclinT1 using KTFCGTPEYLAPEVRREPRILSEEEQEMFRDFDYIADWC as substrate incubated for 60 mins by ADP-Glo kinase assay; format: protein-complex assay
HCT-116 [1] = assay: Antiproliferative activity against human HCT-116 cells assessed as inhibition of cell growth incubated for 48 hrs by CCK8 assay; format: functional
CYP2C19 = CYP2C19 (Homo sapiens, UniProt P33261); assay: Inhibition of CYP2C19 in human liver microsome at 10 uM pre-incubated with compound for 10 mins in presence of NADPH-regenerating system by LC-MS/MS analysis relative to control; format: ADME; conditions: liver microsomes
HCT-116 [2] = assay: Antiproliferative activity against human HCT-116 cells assessed as reduction in colony formation incubated for 14 days by crystal violet staining based analysis; format: functional, cell-based; conditions: dose 50-400 nM, time 14.0 day
CYP1A2 = CYP1A2 (Homo sapiens, UniProt P05177); assay: Inhibition of CYP1A2 in human liver microsome at 10 uM pre-incubated with compound for 10 mins in presence of NADPH-regenerating system by LC-MS/MS analysis relative to control; format: ADME; conditions: liver microsomes
[3] = Stability in human plasma assessed as half life at 100 uM measured up to 120 mins by LC-MS/MS analysis; format: ADME, cell-free
[4] = Metabolic stability in human liver microsome assessed as half life at 100 uM pre-incubated with compound for 60 mins followed by NADPH addition and measured up to 60 mins by LC-MS/MS analysis; format: ADME; conditions: liver microsomes, time < 120 min
CYP2C9 = CYP2C9 (Homo sapiens, UniProt P11712); assay: Inhibition of CYP2C9 in human liver microsome at 10 uM pre-incubated with compound for 10 mins in presence of NADPH-regenerating system by LC-MS/MS analysis relative to control; format: ADME; conditions: liver microsomes
Chain of CYP2C9 (P11712 whole entry): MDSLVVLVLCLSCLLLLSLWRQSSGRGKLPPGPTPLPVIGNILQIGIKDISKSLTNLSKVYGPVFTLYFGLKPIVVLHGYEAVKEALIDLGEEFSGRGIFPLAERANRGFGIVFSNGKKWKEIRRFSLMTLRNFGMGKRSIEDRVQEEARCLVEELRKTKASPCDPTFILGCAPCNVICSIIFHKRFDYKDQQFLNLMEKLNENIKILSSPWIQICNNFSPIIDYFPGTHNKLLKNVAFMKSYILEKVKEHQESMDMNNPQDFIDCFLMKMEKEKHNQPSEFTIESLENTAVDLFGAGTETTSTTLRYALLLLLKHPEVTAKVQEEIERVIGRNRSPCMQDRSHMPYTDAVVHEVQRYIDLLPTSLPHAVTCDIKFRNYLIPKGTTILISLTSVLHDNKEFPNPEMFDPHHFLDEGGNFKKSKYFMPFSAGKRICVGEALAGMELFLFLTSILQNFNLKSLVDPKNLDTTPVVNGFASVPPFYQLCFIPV

Chain of CDK9/cyclin T1 (O60563 whole entry): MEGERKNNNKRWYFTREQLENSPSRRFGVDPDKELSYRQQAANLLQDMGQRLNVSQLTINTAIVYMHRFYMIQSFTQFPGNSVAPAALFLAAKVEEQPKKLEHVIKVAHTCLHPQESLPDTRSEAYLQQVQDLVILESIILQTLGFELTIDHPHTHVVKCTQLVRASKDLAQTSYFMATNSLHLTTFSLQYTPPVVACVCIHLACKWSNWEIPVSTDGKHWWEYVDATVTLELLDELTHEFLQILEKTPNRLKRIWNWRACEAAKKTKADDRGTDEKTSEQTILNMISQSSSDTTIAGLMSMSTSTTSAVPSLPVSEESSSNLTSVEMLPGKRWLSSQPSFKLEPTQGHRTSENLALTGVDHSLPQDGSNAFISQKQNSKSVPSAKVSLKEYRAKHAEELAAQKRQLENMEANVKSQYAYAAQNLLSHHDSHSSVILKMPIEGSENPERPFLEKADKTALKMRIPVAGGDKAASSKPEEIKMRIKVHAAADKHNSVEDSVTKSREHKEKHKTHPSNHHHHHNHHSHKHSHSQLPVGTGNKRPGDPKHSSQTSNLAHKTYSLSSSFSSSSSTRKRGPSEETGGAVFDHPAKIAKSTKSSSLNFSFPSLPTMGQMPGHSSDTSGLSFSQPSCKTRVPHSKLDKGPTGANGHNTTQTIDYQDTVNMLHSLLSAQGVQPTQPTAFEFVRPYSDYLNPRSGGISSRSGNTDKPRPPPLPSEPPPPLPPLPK
Chain of CDK9/cyclin T1 (P50750 whole entry): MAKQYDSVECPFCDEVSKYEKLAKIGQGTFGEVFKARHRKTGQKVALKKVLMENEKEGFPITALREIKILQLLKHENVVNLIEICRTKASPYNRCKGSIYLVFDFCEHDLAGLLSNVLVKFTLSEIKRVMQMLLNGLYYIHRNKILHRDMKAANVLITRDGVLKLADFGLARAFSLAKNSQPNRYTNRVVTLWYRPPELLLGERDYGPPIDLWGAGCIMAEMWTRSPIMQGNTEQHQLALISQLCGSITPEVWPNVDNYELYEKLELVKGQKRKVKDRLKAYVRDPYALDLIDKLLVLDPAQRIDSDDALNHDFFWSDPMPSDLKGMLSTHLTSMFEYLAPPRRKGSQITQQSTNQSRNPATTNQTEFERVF
Chain of CYP2C19 (P33261 whole entry): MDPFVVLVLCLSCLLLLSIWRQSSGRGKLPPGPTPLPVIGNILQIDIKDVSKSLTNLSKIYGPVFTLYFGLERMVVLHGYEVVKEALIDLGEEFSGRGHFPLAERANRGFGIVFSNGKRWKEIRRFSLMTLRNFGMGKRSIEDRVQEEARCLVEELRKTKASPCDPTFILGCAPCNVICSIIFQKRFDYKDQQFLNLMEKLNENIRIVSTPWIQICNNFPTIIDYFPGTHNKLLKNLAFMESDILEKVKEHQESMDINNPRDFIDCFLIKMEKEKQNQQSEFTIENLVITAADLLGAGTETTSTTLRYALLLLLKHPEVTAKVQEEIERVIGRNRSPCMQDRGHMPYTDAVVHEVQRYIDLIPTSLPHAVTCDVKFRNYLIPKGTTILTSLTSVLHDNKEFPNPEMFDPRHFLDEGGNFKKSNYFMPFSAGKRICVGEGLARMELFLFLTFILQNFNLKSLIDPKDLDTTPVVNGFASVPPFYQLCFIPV
Chain of CYP1A2 (P05177 whole entry): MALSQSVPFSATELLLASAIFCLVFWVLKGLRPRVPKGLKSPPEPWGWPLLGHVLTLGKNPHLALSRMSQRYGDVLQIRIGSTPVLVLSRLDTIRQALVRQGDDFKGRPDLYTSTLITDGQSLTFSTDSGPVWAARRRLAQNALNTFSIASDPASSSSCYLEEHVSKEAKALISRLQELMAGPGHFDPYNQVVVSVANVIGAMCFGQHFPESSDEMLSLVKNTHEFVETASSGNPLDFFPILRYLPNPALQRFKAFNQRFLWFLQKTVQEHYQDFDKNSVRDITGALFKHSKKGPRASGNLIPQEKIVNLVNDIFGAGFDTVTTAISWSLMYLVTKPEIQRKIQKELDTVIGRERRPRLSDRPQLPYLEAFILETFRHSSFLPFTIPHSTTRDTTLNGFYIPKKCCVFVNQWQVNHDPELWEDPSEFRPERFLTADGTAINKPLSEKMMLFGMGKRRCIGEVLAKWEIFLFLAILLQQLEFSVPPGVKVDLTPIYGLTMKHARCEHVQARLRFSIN

## O=C(Nc1cccc(C(=O)N2CCOCC2)c1)Nc1cc(-c2ccc(F)cc2F)ccn1
HT-29
  GI50: > 1000 nM
CDK9/cyclin T1
  IC50: > 50 nM
HCT-116 [1]
  GI50: > 1000 nM

## O=C(Nc1cccc(C(=O)N2CCOCC2)c1)Nc1cc(-c2ccc(F)cc2OCC2CCCCC2)ccn1
HT-29
  GI50: > 1000 nM
CDK9/cyclin T1
  IC50: 88.1 nM
HCT-116 [1]
  GI50: > 1000 nM

## CCC1(c2ccccc2)NC(=O)N(Cc2ccccc2)C1=O (single isomer, unassigned; (+))
CYP2C19
  inhibition at 10 µM: 88.3%

## COc1ccc(-c2ccnc(NC(=O)Nc3cccc(C(=O)N4CCOCC4)c3)c2)cc1
HT-29
  GI50: > 1000 nM
CDK9/cyclin T1
  IC50: > 50 nM
HCT-116 [1]
  GI50: > 1000 nM

## CC(C)Oc1cc(F)ccc1-c1ccnc(NC(=O)Nc2ccc(C(=O)N3CCCC3)cc2)c1
HT-29
  GI50: > 1000 nM
CDK9/cyclin T1
  IC50: > 50 nM
HCT-116 [1]
  GI50: > 1000 nM

## CC(C)Oc1cc(F)ccc1-c1ccnc(NC(=O)Nc2ccc(C(=O)N3CCN(C(C)C)CC3)cc2)c1
HT-29
  GI50: > 1000 nM
CDK9/cyclin T1
  IC50: > 50 nM
HCT-116 [1]
  GI50: > 1000 nM

## O=C(Nc1cccc(C(=O)N2CCOCC2)c1)Nc1cc(-c2ccc(Cl)cc2F)ccn1
HT-29
  GI50: > 1000 nM
CDK9/cyclin T1
  IC50: > 50 nM
HCT-116 [1]
  GI50: > 1000 nM

## O=C(Nc1cccc(C(=O)N2CCOCC2)c1)Nc1cc(-c2cc(F)cc(F)c2)ccn1
HT-29
  GI50: > 1000 nM
CDK9/cyclin T1
  IC50: > 50 nM
HCT-116 [1]
  GI50: > 1000 nM

## CC(C)Oc1cc(F)ccc1-c1ccnc(NC(=O)Nc2cccc(C(=O)N3CCN(C(C)C)CC3)c2)c1
HT-29
  GI50: 670 nM
CDK9/cyclin T1
  IC50: > 50 nM
HCT-116 [1]
  GI50: 960 nM

## CCOc1cc(F)ccc1-c1ccnc(NC(=O)Nc2cccc(C(=O)N3CCOCC3)c2)c1
HT-29
  GI50: > 1000 nM
CDK9/cyclin T1
  IC50: 30.4 nM
HCT-116 [1]
  GI50: > 1000 nM

## COc1ccccc1-c1ccnc(NC(=O)Nc2cccc(C(=O)N3CCOCC3)c2)c1
HT-29
  GI50: > 1000 nM
CDK9/cyclin T1
  IC50: 45.9 nM
HCT-116 [1]
  GI50: > 1000 nM

## O=C(Nc1cccc(C(=O)N2CCOCC2)c1)Nc1cc(-c2ccc(F)cc2)ccn1
HT-29
  GI50: > 1000 nM
CDK9/cyclin T1
  IC50: > 50 nM
HCT-116 [1]
  GI50: > 1000 nM

## Cc1ncc(-c2ccnc(Nc3ccc(S(C)(=O)=O)cc3)n2)n1C(C)C [AZD-5438]
HT-29
  GI50: 700 nM
HCT-116 [2]
  Activity: Dose-dependent-effect
HCT-116 [1]
  GI50: 480 nM

## O=c1cc(-c2ccccc2)oc2c1ccc1ccccc12 [ALPHA-NAPHTHOFLAVONE]
CYP1A2
  inhibition at 10 µM: 88.4%

## CC(C)Oc1cc(F)ccc1-c1ccnc(NC(=O)Nc2cccc(C(=O)N3CCCN(C)CC3)c2)c1
HT-29
  GI50: > 1000 nM
CDK9/cyclin T1
  IC50: > 50 nM
HCT-116 [1]
  GI50: > 1000 nM

## Cc1ccc(-c2ccnc(NC(=O)Nc3cccc(C(=O)N4CCOCC4)c3)c2)cc1
HT-29
  GI50: > 1000 nM
CDK9/cyclin T1
  IC50: > 50 nM
HCT-116 [1]
  GI50: > 1000 nM

## O=C(Nc1cccc(C(=O)N2CCOCC2)c1)Nc1cc(-c2cccc(F)c2)ccn1
HT-29
  GI50: > 1000 nM
CDK9/cyclin T1
  IC50: > 50 nM
HCT-116 [1]
  GI50: > 1000 nM

## CC(C)[N+](C)(CCOC(=O)C1c2ccccc2Oc2ccccc21)C(C)C.[Br-] [PROPANTHELINE BROMIDE]
[3]
  half-life at 100 µM: 15.6 min

## O=C(Nc1cccc(C(=O)N2CCOCC2)c1)Nc1cc(-c2cccc(Cl)c2)ccn1
HT-29
  GI50: > 1000 nM
CDK9/cyclin T1
  IC50: 35.9 nM
HCT-116 [1]
  GI50: > 1000 nM

## CCN1CCN(C(=O)c2cccc(NC(=O)Nc3cc(-c4ccc(F)cc4OC(C)C)ccn3)c2)CC1
HT-29
  GI50: 570 nM
CDK9/cyclin T1
  IC50: 16.5 nM
HCT-116 [1]
  GI50: 200 nM

## CC(C)Oc1cc(F)ccc1-c1ccnc(NC(=O)Nc2ccc(C(=O)N3CCOCC3)cc2)c1
HT-29
  GI50: > 1000 nM
CDK9/cyclin T1
  IC50: > 50 nM
HCT-116 [1]
  GI50: > 1000 nM

## O=C(O)Cc1ccccc1Nc1c(Cl)cccc1Cl [DICLOFENAC]
[4]
  half-life at 100 µM: 6.4 min

## CCN1CCN(C(=O)c2ccc(NC(=O)Nc3cc(-c4ccc(F)cc4OC(C)C)ccn3)cc2)CC1
HT-29
  GI50: > 1000 nM
CDK9/cyclin T1
  IC50: > 50 nM
HCT-116 [1]
  GI50: > 1000 nM

## CC(C)Oc1cc(F)ccc1-c1ccnc(NC(=O)Nc2ccc(C(=O)N3CCN(C)CC3)cc2)c1
HT-29
  GI50: > 1000 nM
CDK9/cyclin T1
  IC50: > 50 nM
HCT-116 [1]
  GI50: > 1000 nM

## CC(=O)N1CCN(C(=O)c2ccc(NC(=O)Nc3cc(-c4ccc(F)cc4OC(C)C)ccn3)cc2)CC1
HT-29
  GI50: > 1000 nM
CDK9/cyclin T1
  IC50: > 50 nM
HCT-116 [1]
  GI50: > 1000 nM

## Nc1ccc(S(=O)(=O)Nc2ccnn2-c2ccccc2)cc1 [SULFAPHENAZOLE]
CYP2C9
  inhibition at 10 µM: 87.2%

## COc1cc(F)ccc1-c1ccnc(NC(=O)Nc2cccc(C(=O)N3CCOCC3)c2)c1
HT-29
  GI50: > 1000 nM
CDK9/cyclin T1
  IC50: 27.8 nM
HCT-116 [1]
  GI50: > 1000 nM

## CC(=O)N1CCN(C(=O)c2cccc(NC(=O)Nc3cc(-c4ccc(F)cc4OC(C)C)ccn3)c2)CC1
HT-29
  GI50: > 1000 nM
CDK9/cyclin T1
  IC50: > 50 nM
HCT-116 [1]
  GI50: > 1000 nM

## O=C(Nc1cccc(C(=O)N2CCOCC2)c1)Nc1cc(-c2cc(F)c(F)c(F)c2)ccn1
HT-29
  GI50: > 1000 nM
CDK9/cyclin T1
  IC50: > 50 nM
HCT-116 [1]
  GI50: > 1000 nM

## CC(C)Oc1cc(F)ccc1-c1ccnc(NC(=O)Nc2ccc(C(=O)N3CCC(F)(F)CC3)cc2)c1
HT-29
  GI50: > 1000 nM
CDK9/cyclin T1
  IC50: > 50 nM
HCT-116 [1]
  GI50: > 1000 nM

## CC(C)Oc1cc(F)ccc1-c1ccnc(NC(=O)Nc2cccc(C(=O)N3CCOCC3)c2)c1
HT-29
  GI50: 990 nM
CDK9/cyclin T1
  IC50: 21 nM
HCT-116 [1]
  GI50: 370 nM

## O=C(Nc1cccc(C(=O)N2CCOCC2)c1)Nc1cc(-c2ccc(F)c(F)c2)ccn1
HT-29
  GI50: > 1000 nM
CDK9/cyclin T1
  IC50: > 50 nM
HCT-116 [1]
  GI50: > 1000 nM

## C[C@]12CC[C@H]3[C@@H](CCC4=CC(=O)CC[C@@]43C)[C@@H]1CC[C@@H]2O [TESTOSTERONE]
[4]
  half-life at 100 µM: 7.8 min

## O=C(Nc1cccc(C(=O)N2CCOCC2)c1)Nc1cc(-c2ccccc2F)ccn1
HT-29
  GI50: > 1000 nM
CDK9/cyclin T1
  IC50: > 50 nM
HCT-116 [1]
  GI50: > 1000 nM

## O=C(Nc1cccc(C(=O)N2CCOCC2)c1)Nc1cc(-c2ccc(F)cc2OCC2CCCC2)ccn1
HT-29
  GI50: > 1000 nM
CDK9/cyclin T1
  IC50: 59.1 nM
HCT-116 [1]
  GI50: > 1000 nM

## CC(C)Oc1cc(F)ccc1-c1ccnc(NC(=O)Nc2cccc(C(=O)N3CCCC3)c2)c1
HT-29
  GI50: 180 nM
CDK9/cyclin T1
  IC50: 35.8 nM
HCT-116 [1]
  GI50: > 1000 nM
